In test [1] the test system is sweet sensitive taste panel of five experts (trained flavourists). As to the kind of experiment: Taste evaluation of mogroside V / 11-O-mogroside V solutions in 5% (w/v) sucrose and 0.03% (w/v) citric acid. The format is in vivo, human. The following applies: compared to mogroside V alone. The text has this: Mogroside V and 11-O-mogroside V were isolated from extracts of Luo Han Guo using Agilent 1100 preparative HPLC system with a Phenomenex Luna C18 (2) column (5 μm, 210×21.4 mm), and combined to form solutions of various concentrations.
These solutions were combined with a solution containing 5% (w/v) sucrose and 0.03% (w/v) citric acid to give test samples and evaluated by a sweet sensitive taste panel of five experts (trained flavourists).

A short description of test [2]: Sweetness relative to sucrose. In kind it is in vivo. As for the experimental part: The term “sucrose equivalence” refers to the equivalence in sweetness of a composition containing at least one non-sucrose sweetener to a reference sucrose solution. […] Other non-sucrose sweeteners may then be tasted at a series of dilutions to determine the concentration of the non-sucrose sweetener that is as sweet (i.e. isosweet) to a given sucrose reference. The term “isosweet” refers to compositions that have equivalent sweetness. Typically, the sweetness of a given composition is measured with reference to a solution of sucrose. See “A Systematic Study of Concentration-Response Relationships of Sweeteners,” […]. Walters, […]. Booth, […]. Gibes, B. T. Carr, and L. M. Brands, in Sweeteners: Discovery, Molecular Design and Chemoreception, D. E. Walters, F. T. Orthoefer, and G. E. DuBois, Eds., American Chemical Society, Washington, D.C. (1991), pp 261-276.

The subject of test [3] is expert panel of seven people. Kind of test: Scoring of sweet taste aspects versus base solution (5% sucrose and 0.03% citric acid). The following applies: Table 20; 25 ppm; score versus base, 0 same, 3 much higher, −3 much lower. In kind it is in vivo, human.
Test [4] has as its system Four sweet sensitive panelists. As to the kind of experiment: Iso-sweet potency versus standard sucrose solutions. In kind it is in vivo, human. As for the experimental part: 10 mg iso-mogroside VI (FIG. 7) was dissolved in […] water to make 100 ppm iso-mogroside VI solution. The working solution of 11-epi-mogroside V (FIG. 8) was 374 ppm (9.34 mg 11-epi-mogroside V in 25 mL water), A series of standard sucrose solutions were prepared (0.50, 0.75, 1.00, 1.25, 1.50%) as sweetness references.
Four sweet sensitive panelists evaluated 100 ppm iso-mogroside VI and 374 ppm 11-epi-mogroside V and the sucrose standards, and were asked to give sweet equivalence concentrations to sucrose. The mean sweet equivalence concentrations of each compound were used to calculate the iso-sweet potency.

Entries after “also recorded” stand apart in the source; their conditions may differ.

For `C[C@H](CC[C@@H](O[C@@H]1O[C@H](CO[C@@H]2O[C@H](CO)[C@@H](O)[C@H](O)[C@H]2O)[C@@H](O)[C@H](O)[C@H]1O[C@@H]1O[C@H](CO)[C@@H](O)[C@H](O)[C@H]1O)C(C)(C)O)[C@H]1CC[C@@]2(C)[C@H]3CC=C4[C@@H](CC[C@H](O[C@@H]5O[C@H](CO[C@@H]6O[C@H](CO)[C@@H](O)[C@H](O)[C@H]6O)[C@@H](O)[C@H](O)[C@H]5O)C4(C)C)[C@]3(C)C(=O)C[C@]12C` [11-O-mogroside V, 11-O-Mogroside V], in test [1], the “Effect of blending 11-O-mogroside V with mogroside V on sweet quality” value is “improves the sweet quality compared to mogroside V alone; also recorded: helped to reduce sweetness lingering (weaken later sweetness taste) and reduce astringent and bitter aftertastes compared to mogroside V alone”. The “Sweetness relative to sucrose” value in test [2] (Example 2 results) is 84 times sweeter than sucrose; in test [2] (description), “about 84 times the sweetness of sucrose”.
On to `C[C@H](CC[C@@H](O[C@@H]1O[C@H](CO[C@@H]2O[C@H](CO)[C@@H](O)[C@H](O)[C@H]2O)[C@@H](O)[C@H](O)[C@H]1O[C@@H]1O[C@H](CO)[C@@H](O)[C@H](O)[C@H]1O)C(C)(C)O)[C@H]1CC[C@@]2(C)[C@@H]3CC=C4[C@@H](CC[C@H](O[C@@H]5O[C@H](CO[C@@H]6O[C@H](CO)[C@@H](O)[C@H](O)[C@H]6O)[C@@H](O)[C@H](O)[C@H]5O)C4(C)C)[C@]3(C)[C@@H](O)C[C@]12C` [11-epi-mogroside V, 3-O-β-D-glucopyranosyl(1→6)-β-D-glucopyranosyl-11β-OH-mogrol-24-O-β-D-glucopyranosyl-(1→2)-[β-D-glucopyranosyl-(1→6)]-β-D-glucopyranosyl], for which, in test [3], the “Astringent, average score” value was 0; the “Lingering Sweet, average score” value is 0; the “Overall Sweet, average score” value was determined as 0.17; the “Upfront Sweet, average score” value turned out to be 0.33. Further, the “Volatile Off-Note, average score” value in test [3] turned out to be 0. For the same molecule, the “Sweet equivalence concentration to sucrose” value in test [4] (374 ppm in water) was found to be 1.31 % sucrose. In test [4] (calculated from mean sweet equivalence concentrations), the Iso-sweet potency is listed as 35 times of sweetness of sucrose.

These data come from US20200345049A1, “COMPOSITIONS” (Givaudan, S.A., priority 2017, published 2020).
